Laboratory results taken from PMC12446422, “Breastfeeding on ART and a closer look at drug transfer to HIV-exposed uninfected infants” (Scientific Reports, 2025).
Where “and” joins values, the source holds several entries; their conditions need not be identical. Identical values can stand only once. Entries after “also recorded” stand apart in the source; their conditions may differ.

How the values were obtained:
[1] = ART drug monitoring in serum of breastfed HEU infants (HPLC-UV); type: in vivo, human; details: for Infant serum level, in words: breastfed infants, against detection limit or adult target range; for concentration at 14 days (infant age) / concentration at 4 months (infant age) / concentration at 1 month (infant age) / concentration at 6 months (infant age): human; for concentration at 6 months (infant age): 6 months of age, breastfeeding exclusive, partial or stopped
Method: (§1) HIV-exposed infants were followed at the Pediatric Infectious Diseases Outpatient Clinic at the Department of General Pediatrics according to the current German and European guidelines for HIV-exposed or infected children[6],[11]. MLWH were followed at the department of Infection Medicine, Medical Service Centre Clotten, Freiburg. […] Two mothers (infants 2 and 4) were treated with dolutegravir 50 mg (DTG), abacavir 600 mg (ABC), and lamivudine 300 mg (3TC) once daily. The […] of infant 3 received tenofovir alafenamide/emtricitabine 25/200 mg (TAF/FTC) once daily in combination with nevirapine 200 mg (NVP) twice daily.
(§2) For all HIV-exposed children visits, clinical examinations and blood sampling took place at the age of one, four and 18 to 24 months. […] Routine blood tests included blood cell counts with differentials, transaminases, bilirubin at the first presentation, HIV-PCR and at 18–24 months or after cessation of breastfeeding HIV serology was performed. Primary outcome was infant serum drug exposure; breast-milk concentrations served as supportive secondary data. Serum samples of mothers and infants were drawn during visits to our clinic. Neither the timing of maternal drug intake and breastfeeding, nor the timing of the blood samples, was standardized. Therefore, no pharmacokinetic calculations could be performed. When available, additional serum samples of infants or mothers and a breast milk sample were sent to the Drug monitoring laboratory, Division of Infectious Diseases, Department of Internal Medicine II, University of Würzburg Medical Center, Germany. […] To assess the infant’s ART drug exposure upon breastfeeding, we calculated the relative infant dose (RID). The RID is a commonly used tool for assessing drug exposure and is calculated by dividing the infant’s ART level by the mother’s ART level, expressed as a decimal or percentage[13],[14]. All information for this study was derived from routine clinical exams and was, when available, retrospectively extracted from the patients’ medical records. […] For analysis, the HEU children were divided in 2 groups: HEU breastfed infants (n = 8) and HEU formula-fed infants (n = 62). […] All research was performed in accordance with relevant guidelines and regulations. Data collection and analysis were carried out in Microsoft Excel and R.

[2] = statement in discussion; cited from earlier work
[3] = ART drug monitoring in breast milk (HPLC-UV); type: in vivo, human; details: oral, read-out: ART level in breast milk (BM); for concentration at 6 months (infant age): human one
Method: as §1, §2

[4] = Relative infant dose (RID): infant ART level divided by mother's ART level; type: in vivo, human; details: for < 10% RID: target RID expressed as infant serum level
Method: as §2
The RID is used for clinical risk assessment, with a target RID of below 10% indicating a low risk of adverse drug reactions in infants[16],[17].

[5] = ART drug monitoring in maternal serum (HPLC-UV); type: in vivo, human; details: for Maternal serum level, in words: against adult target range
Method: as §1, §2

[6] = statement in discussion; cited from earlier work; remark: listed apart in the source
HEU breastfed infants = assay: Absolute neutrophil count of ART-exposed HEU breastfed infants; type: in vivo, human
Method: as §2
ART serum levels above a 10% RID of the adult target range and neutropenia <1,0 (1000/µl) are indicated in bold.

[7] = target range for drug trough levels in adults; cited from earlier work
[8] = 14 days, breastfed infant exposed to maternal ART, ZDV prophylaxis given
[9] = serum, other: breastfeeding (maternal ART), breastfed infant (entry one), read-out: ART level in infant serum (IS)
[10] = all occasions, infant serum below detection, infant 4 (DTG), 8 (RAL), 5 (DRV/r), 7 (RPV)
[11] = child, infant 1 (RPV), infant 3 (nevirapine), infant 2 (DTG)
[12] = serum, other: breastfeeding (maternal ART), read-out: ART level in infant serum (IS)

Compound | Infant serum level, in words [1] | Lipophilicity [2] | concentration at 6 months (infant age) [3] [ng/mL] | concentration at 1 month (infant age) ([3]; human three) [ng/mL] | concentration at 4 months (infant age) ([3]; human two) [ng/mL] | < 10% RID [4] [ng/mL] | Neutro_abs (absolute neutrophil count) (HEU breastfed infants; 1 month) | Neutro_abs (absolute neutrophil count) (HEU breastfed infants; 4 months) | Neutro_abs (absolute neutrophil count) (HEU breastfed infants; 6 months) | Neutro_abs (absolute neutrophil count) (HEU breastfed infants; [8]) | Adult trough level [7] [ng/mL] | concentration at 1 month (infant age) [1, 9] [ng/mL] | RID (relative infant dose) [4, 10] [%] | RID (relative infant dose) [4, 11] [%] | Maternal serum level, in words [5] | Neutro_abs (absolute neutrophil count) (HEU breastfed infants; 18 months) | concentration at 6 months (infant age) [1, 12] [ng/mL] | other results
CC(C)CN(C[C@@H](O)[C@H](Cc1ccccc1)NC(=O)O[C@H]1CO[C@H]2OCC[C@H]21)S(=O)(=O)c1ccc(N)cc1 [DRV, darunavir] | below detectable levels | lipophilic | < 250 | < 250 | < 250 | < 380 | 0,69 1000/ µl | 0,64 1000/ µl | 1,15 1000/ µl | 1,16 1000/ µl |  |  |  |  |  |  |  | concentration at 14 days (infant age) ([1]; in vivo, breastfed infant (entry one), read-out: ART level in infant serum (IS)): < 50 ng/mL; concentration at 4 months (infant age) ([1]; in vivo, breastfed infant (entry three), read-out: ART level in infant serum (IS)): < 50 ng/mL; concentration at 1 month (infant age) ([5]; female, human, in vivo, 1 month of age, read-out: ART level in maternal serum (MS)): 3800 ng/mL; concentration at 4 months (infant age) ([5]; female, human, in vivo, 4 months of age, read-out: ART level in maternal serum (MS)): 4130 ng/mL; concentration at 6 months (infant age) ([5]; female, human, in vivo, 6 months of age, read-out: ART level in maternal serum (MS)): 3360 ng/mL; Plasma protein binding [6]: high
C[C@@H]1CCO[C@H]2Cn3cc(C(=O)NCc4ccc(F)cc4F)c(=O)c(O)c3C(=O)N12 [DTG, dolutegravir] |  | moderately lipophilic | 680 | < 50 | 648 | < 400 |  |  |  | 3,53 1000/ µl | 250 to 4000 | < 50 | < 10 | 240 | within the therapeutic range | 3,25 1000/ µl |  | concentration at 4 months (infant age) ([5]; human two, serum, oral, read-out: ART level in maternal serum (MS)): 2410 ng/mL
Cc1ccnc2c1NC(=O)c1cccnc1N2C1CC1 [NVP, nevirapine] |  | highly lipophilic |  |  |  | < 670 | 1,53 1000/ µl | 1,20 1000/ µl | 3,33 1000/ µl |  | 1600 to 6700 | 1210 |  | 171 |  | 1,32 1000/ µl | 649 | concentration at 4 months (infant age) ([1]; serum, other: breastfeeding (maternal ART), breastfed infant (entry two), read-out: ART level in infant serum (IS)): 1150 ng/mL; concentration at 6 months (infant age) ([5]; human one, serum, oral, read-out: ART level in maternal serum (MS)): 3930 ng/mL
Cc1nnc(C(=O)NC(C)(C)c2nc(C(=O)NCc3ccc(F)cc3)c(O)c(=O)n2C)o1 [RAL, raltegravir] | below the detectable range | moderately lipophilic |  |  |  | < 55 | 1,32 1000/ µl |  |  | 2,74 1000/ µl |  |  |  |  |  | 3,35 1000/ µl |  | concentration at 1 month (infant age) ([1]; in vivo): < 75 ng/mL; concentration at 4 months (infant age) ([1]; in vivo): < 75 ng/mL; concentration at 14 days (infant age) ([1]; in vivo): < 75 ng/mL; concentration at 1 month (infant age) ([3]; female, human, 1 month of age): 293 ng/mL; concentration at 4 months (infant age) ([3]; female, human, 4 months of age): 168 ng/mL; concentration at 14 days (infant age) ([3]; female, human, 14 days of age): 1760 ng/mL; concentration at 1 month (infant age) ([5]; female, human, in vivo): 872 ng/mL; concentration at 4 months (infant age) ([5]; female, human, in vivo): 184 ng/mL; concentration at 14 days (infant age) ([5]; female, human, serum, oral, 14 days of age, timing of intake and sampling not standardized, read-out: ART level in maternal serum (MS)): < 75 ng/mL
Cc1cc(/C=C/C#N)cc(C)c1Nc1ccnc(Nc2ccc(C#N)cc2)n1 [RPV, rilpivirine] | below the detectable range; also recorded: below the range of detection; also recorded: above the adult target range | highly lipophilic | < 50 | < 50 |  | < 20 |  | 1,80 1000/ µl and 1,15 1000/ µl and 1,05 1000/ µl |  | 2,25 1000/ µl and 2,27 1000/ µl | 50 to 200 |  | < 10 | 633 | above the adult target range; also recorded: well above the adult therapeutic range | 1,77 1000/ µl and 1,65 1000/ µl and 1,39 1000/ µl | < 50 | 
